The text below walks through data of PMC5111108, “An insecticide resistance-breaking mosquitocide targeting inward rectifier potassium channels in vectors of Zika virus and malaria” (Scientific Reports, 2016).

In assay [1] the target is T1, AeKir1 (Aedes aegypti, UniProt L0EQS9).
T1 sequence (L0EQS9 1-486): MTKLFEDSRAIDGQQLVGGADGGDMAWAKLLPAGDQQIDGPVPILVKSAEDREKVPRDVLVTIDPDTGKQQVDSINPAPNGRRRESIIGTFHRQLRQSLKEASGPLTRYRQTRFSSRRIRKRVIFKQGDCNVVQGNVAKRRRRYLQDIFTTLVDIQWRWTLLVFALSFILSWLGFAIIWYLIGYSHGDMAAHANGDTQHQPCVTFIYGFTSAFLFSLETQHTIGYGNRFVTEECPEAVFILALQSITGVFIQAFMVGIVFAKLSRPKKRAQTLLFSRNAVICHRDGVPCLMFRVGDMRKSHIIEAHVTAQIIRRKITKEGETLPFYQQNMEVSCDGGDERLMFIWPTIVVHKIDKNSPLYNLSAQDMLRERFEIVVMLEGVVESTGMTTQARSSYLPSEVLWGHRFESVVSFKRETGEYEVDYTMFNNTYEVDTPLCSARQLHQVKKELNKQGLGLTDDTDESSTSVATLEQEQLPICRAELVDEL
Nature of the assay: Tl+ flux assay, AeKir1. In kind it is cell-based.

The target in assay [2] is T2, Kir1.1 (Rattus norvegicus, UniProt P35560).
T2 sequence (P35560 1-391): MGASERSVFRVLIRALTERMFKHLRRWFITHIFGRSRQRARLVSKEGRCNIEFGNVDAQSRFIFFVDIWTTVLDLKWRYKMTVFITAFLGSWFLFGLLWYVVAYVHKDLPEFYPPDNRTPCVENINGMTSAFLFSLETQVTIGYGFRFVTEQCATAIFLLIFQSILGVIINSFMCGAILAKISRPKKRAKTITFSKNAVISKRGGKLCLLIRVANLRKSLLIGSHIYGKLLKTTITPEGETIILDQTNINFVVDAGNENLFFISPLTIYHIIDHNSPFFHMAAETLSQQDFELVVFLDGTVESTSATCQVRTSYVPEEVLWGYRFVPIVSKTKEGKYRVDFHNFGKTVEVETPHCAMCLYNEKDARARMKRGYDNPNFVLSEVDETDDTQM
Nature of the assay: Tl+ flux assay, mammalian Kir1.1. In kind it is cell-based. The note with it: read-out: inhibition of Kir1.1.

Assay [3] has as its target T3, Kir6.2/SUR1 (Homo sapiens, UniProt Q14654).
T3 construct: expressed in transfected cells
Nature of the assay: Tl+ flux assay, mammalian Kir6.2/SUR1. The format is cell-based.

For assay [4], the system named is An. gambiae. Nature of the assay: Fecundity (eggs laid) in An. gambiae. In kind it is in vivo, Anopheles gambiae. Particulars: VU041 ~1 μg/mg, VU937 ~10 μg/mg, topical within 1 h after engorgement, 72 h post blood feeding. The method, then: After treatment with the respective drugs, individual female mosquitoes were transferred to Drosophila vials (Fisher Scientific, Pittsburg, OA) containing 2 mL of water. The total number of eggs were counted 72-hours after being transferred to the vial. Any mosquitoes that died during this 72-hour period were excluded from the analysis. […] At least 25 female mosquitoes were used per replicate for each treatment group; each treatment was repeated on three separate broods, giving a total number of individuals studied ranging from 75–113 for each group.

The test system of assay [5] is Ae. aegypti. Nature of the assay: Fecundity (eggs laid) in Ae. aegypti. In kind it is in vivo, Aedes aegypti. The note with it: 3.4 μg/mg mosquito, topical within 1 h after engorgement, 72 h post blood feeding. The method, then: The mosquitoes were returned to rearing conditions for 24 h after which they were transferred to individual egg laying tubes consisting of a glass tube 21 × 70 mm (Fisher Scientific, Pittsburg, PA) with a piece of coffee filter ([…] USA, Clearwater, FL) cut to fit the bottom of the tube. The filter was wetted with 150 μl of dH2O and the open end of the tube was plugged with a cotton ball. The mosquitoes in their individual egg laying tubes were returned to rearing conditions for an additional 48 h, and the number of eggs laid were counted. Any mosquitoes that died during the 72 h period after blood feeding were excluded from the analysis. Thirty female mosquitoes were used per replicate for each treatment group; each treatment was repeated on four separate broods, giving a total number of individuals studied ranging from 87-113 for each treatment group. For both species, the median number of eggs laid per mosquito was compared using a Kruskal-Wallis ANOVA with a Dunn's post-hoc analysis (Prism 6, Graphpad Software).

Assay [6] addresses T4, Kir4.1 (Homo sapiens, UniProt P78508).
T4 construct: expressed in transfected cells
T4 sequence (P78508 1-379): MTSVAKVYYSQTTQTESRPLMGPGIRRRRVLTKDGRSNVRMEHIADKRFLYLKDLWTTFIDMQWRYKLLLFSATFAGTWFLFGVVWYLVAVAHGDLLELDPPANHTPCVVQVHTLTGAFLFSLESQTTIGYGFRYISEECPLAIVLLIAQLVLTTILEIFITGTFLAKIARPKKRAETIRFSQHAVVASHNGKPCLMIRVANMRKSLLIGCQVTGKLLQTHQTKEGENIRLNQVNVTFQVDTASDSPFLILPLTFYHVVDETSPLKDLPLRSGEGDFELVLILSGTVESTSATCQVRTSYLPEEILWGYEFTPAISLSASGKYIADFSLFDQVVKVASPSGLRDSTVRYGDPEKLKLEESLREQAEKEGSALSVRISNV
Nature of the assay: Tl+ flux assay, mammalian Kir4.1. In kind it is cell-based.

As usually defined, the IC50 is the point on the concentration scale where inhibition reaches its midpoint. A high value points to a need for much substance. By inhibition is commonly meant the percentage by which the read-out fell short of the control.

T3 sequence (Q14654 whole entry): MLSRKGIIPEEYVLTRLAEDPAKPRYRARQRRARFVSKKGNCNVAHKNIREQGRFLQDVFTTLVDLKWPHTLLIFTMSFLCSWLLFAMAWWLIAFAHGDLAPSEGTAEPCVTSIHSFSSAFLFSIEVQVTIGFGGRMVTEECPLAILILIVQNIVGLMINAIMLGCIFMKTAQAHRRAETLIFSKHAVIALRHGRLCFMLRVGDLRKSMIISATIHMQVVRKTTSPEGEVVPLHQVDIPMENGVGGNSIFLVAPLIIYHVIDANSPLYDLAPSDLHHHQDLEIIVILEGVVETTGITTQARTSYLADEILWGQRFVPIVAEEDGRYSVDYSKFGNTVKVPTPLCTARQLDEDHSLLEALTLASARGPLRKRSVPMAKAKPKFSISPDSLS
T3 sequence (Q09428 whole entry partner): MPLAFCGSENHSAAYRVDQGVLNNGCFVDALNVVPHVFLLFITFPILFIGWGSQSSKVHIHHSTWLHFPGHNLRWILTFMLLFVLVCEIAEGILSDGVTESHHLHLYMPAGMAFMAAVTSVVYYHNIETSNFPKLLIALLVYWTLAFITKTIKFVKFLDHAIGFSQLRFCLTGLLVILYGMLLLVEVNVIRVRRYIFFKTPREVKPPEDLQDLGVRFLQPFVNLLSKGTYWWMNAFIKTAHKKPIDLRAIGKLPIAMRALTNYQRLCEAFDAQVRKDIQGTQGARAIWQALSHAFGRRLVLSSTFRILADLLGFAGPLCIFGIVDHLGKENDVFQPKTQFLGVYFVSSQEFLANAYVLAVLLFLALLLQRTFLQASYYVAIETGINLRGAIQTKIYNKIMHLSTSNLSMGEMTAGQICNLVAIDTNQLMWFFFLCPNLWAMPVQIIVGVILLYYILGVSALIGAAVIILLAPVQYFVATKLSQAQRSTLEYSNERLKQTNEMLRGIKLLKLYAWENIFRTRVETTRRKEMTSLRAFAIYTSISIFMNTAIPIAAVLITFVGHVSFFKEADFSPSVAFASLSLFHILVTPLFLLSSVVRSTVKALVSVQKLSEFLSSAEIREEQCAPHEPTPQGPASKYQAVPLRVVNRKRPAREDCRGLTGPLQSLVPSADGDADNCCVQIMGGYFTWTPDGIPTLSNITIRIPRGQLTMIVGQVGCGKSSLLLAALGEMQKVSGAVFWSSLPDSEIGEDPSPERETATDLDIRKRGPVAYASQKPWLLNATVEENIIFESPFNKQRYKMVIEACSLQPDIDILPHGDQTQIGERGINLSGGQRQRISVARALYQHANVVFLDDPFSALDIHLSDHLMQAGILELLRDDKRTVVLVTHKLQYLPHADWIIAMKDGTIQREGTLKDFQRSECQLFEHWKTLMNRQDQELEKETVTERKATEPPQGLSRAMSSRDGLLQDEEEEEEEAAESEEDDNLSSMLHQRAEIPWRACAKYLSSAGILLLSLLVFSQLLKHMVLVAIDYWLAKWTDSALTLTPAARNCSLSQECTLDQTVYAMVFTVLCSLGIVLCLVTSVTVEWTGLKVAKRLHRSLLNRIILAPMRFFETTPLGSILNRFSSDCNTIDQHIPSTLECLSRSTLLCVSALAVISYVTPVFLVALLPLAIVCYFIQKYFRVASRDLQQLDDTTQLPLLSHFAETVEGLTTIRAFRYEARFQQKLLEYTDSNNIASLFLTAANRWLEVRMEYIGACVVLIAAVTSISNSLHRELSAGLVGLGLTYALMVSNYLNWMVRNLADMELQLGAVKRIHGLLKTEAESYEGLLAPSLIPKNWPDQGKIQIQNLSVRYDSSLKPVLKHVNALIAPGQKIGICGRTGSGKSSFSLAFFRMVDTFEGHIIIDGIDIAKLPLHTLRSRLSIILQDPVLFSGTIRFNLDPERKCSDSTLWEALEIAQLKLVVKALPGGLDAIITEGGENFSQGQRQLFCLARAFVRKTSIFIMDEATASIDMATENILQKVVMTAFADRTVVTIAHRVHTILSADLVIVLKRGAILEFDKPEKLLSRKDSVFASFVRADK

With `O=C(Cn1nc(C(F)(F)F)c2c1CCCC2)N1CCCc2ccccc21` [VU041, 1-(3,4-dihydroquinolin-1(2H)-yl)-2-(3-(trifluoromethyl)-4,5,6,7-tetrahydro-1H-indazol-1-yl)ethan-1-one], the 50% inhibitory concentration (IC50) in assay [1] came out at 1700 nM. Moreover, the inhibition at 30 µM in assay [2], in assay [3] and in assay [6] was below 10% throughout. The “median number of eggs laid per mosquito vs control” value in assay [4] and in assay [5] was “significantly lower median number of eggs per mosquito” each time.
